We go through 3 compounds from publication PMC11277004, “Di- and Triselenoesters—Promising Drug Candidates for the Future Therapy of Triple-Negative Breast Cancer” (International Journal of Molecular Sciences, 2024).

Each structure is given as a SMILES string.

For data set [1], the system named is human breast cancer cells MCF-7 and MDA-MB-231. The arrangement: method as in PMID 36077839. As to conditions: 3 µM; cited from earlier work.
Data set [2] relates to MCF-7 breast cancer cells. The data set is described as follows: MTT cytotoxicity test, MCF-7. The class given is cell-based, human. As to conditions: Homo sapiens, MCF7; MCF-7, 24 h incubation; read-out: IC50, cell viability (MTT). The protocol:
(§1) MCF-7 and MDA-MB-231 human breast cancer cell lines, as well as MCF-10A normal human breast epithelial cells, were acquired from the American Type Culture Collection (ATCC, Manassas, VA, USA). The characteristics of the breast cancer cell lines used in this study are compared in Table 1. MCF-7 and MDA-MB-231 cells were cultured in Dulbecco’s modified Eagle’s medium (Gibco, San Diego, CA, USA), while MCF-10A cells were cultured in the mammary epithelial cell growth medium with the following supplements: BPE, hEGF, insulin, hydrocortisone, GA-1000 (Lonza, Basel, Switzerland). All media were complemented by 10% of fetal bovine serum (FBS) and 1% of the following antibiotics: penicillin and streptomycin (both Gibco, San Diego, CA, USA). The cells were maintained in an incubator that provides the optimal growth conditions for the cell culture: 5% CO2, 37 °C, and humidity in a range of 90–95%. The cells were cultured in 100 mm plates (Sarstedt, Newton, NC, USA). Subsequently, after obtaining a subconfluent cell culture, the cells were detached with 0.05% trypsin with 0.02% EDTA (Gibco, San Diego, CA, USA). […] In this study, cells that obtained 80% confluence were used. The MTT assay was used to determine the cytotoxic effects of the compounds in the study on MCF-7 and MDA-MB-231 breast cancer cells as well as MCF-10A normal human breast epithelial cells based on Carmichael’s method. […] After this time, the medium was removed, and the cell monolayer was washed with warm phosphate-buffered saline (PBS) without calcium and magnesium. In the next step, PBS and MTT solution in PBS (5 mg/mL) were added to each well to obtain a final MTT concentration of 0.5 mg/mL, and then the cells were incubated for 4 h (37 °C temperature, 5% CO2, 90–95% humidity). After the incubation period, the contents of each well were removed, 1 mL of DMSO was added to dissolve the formazan, and then the plate with the added DMSO was mixed for 5–10 min on a microplate shaker (Boeco, Hamburg, Germany). Then, 10 µL of Sorensen’s glycine buffer (a solution of 0.1 M glycine and 0.1 M sodium chloride adjusted to pH 10.5 with 0.1 M sodium hydroxide) was added. The absorbance of the obtained solution was immediately measured at a wavelength of λ = 570 nm using a Thermo Scientific Evolution 201 UV–VIS spectrophotometer (Thermo Fisher Scientific, Waltham, MA, USA). The absorbance result obtained in the control cells (without the addition of the tested compounds) was taken as 100%, while the viability of cells incubated with the tested compounds was presented as a percentage of the control value.
A general note: Formazan colour is commonly taken as a measure of viable cells.

Data set [3] has as its system MDA-MB-231 triple-negative breast cancer cells. The data set can be described thus: MTT cytotoxicity test, MDA-MB-231. The class given is cell-based, human. The method, then: as §1
Data set [4] concerns MCF-10A normal human breast epithelial cells. The data set can be described thus: MTT cytotoxicity test, MCF-10A. As to conditions: Homo sapiens, 24 h incubation, read-out: IC50, cell viability (MTT). It counts as cell-based. The method, then:
as §1

The subject of data set [5] is MCF-7 breast cancer cells. The data set is described as follows: DNA biosynthesis assay ([3H]-thymidine incorporation), MCF-7. It counts as cell-based, human. As to conditions: Homo sapiens, MCF7, 24 h, read-out: IC50, DNA biosynthesis. The protocol: (§2) The study of the antiproliferative properties (intensity of [^3H]-thymidine incorporation into cell DNA) of the tested derivatives against tested cell lines (MCF-7, MDA-MB-231, MCF-10A) was performed after 24 h incubation with varied concentrations of the tested compounds in the medium (0.5–5 µM) in 6-well plates (baseline seeding density: 5 × 10^5 cells/well). After 24 h the medium was removed, the cells were washed with PBS (Corning, Kennebunk, ME, USA), and a fresh medium was added. After that, the cells were treated with 0.5 µCi of tritium-labeled thymidine (specific activity 7 Ci/mmol) by incubating them with this compound for 4 h under the same conditions as the cell culture. In the first step, the medium was removed, and the cell monolayer was washed twice with 1 mL of 0.05 M Tris-HCl buffer pH 7.4 containing 0.11 M NaCl. To denature proteins, the cells were washed twice with 1 mL of 5% trichloroacetic acid (TCA) solution. Finally, cell lysis was performed by adding 1 mL of 0.1 M sodium hydroxide (NaOH) solution containing 1% sodium dodecyl sulfate (SDS) to each well. After five minutes, the obtained cell lysates were transferred to scintillation vials with 2 mL of scintillation fluid added to them beforehand. Radioactivity was measured using the Scintillation Counter 1900 TR, TRI-CARB (Packard, Perkin Elmer, Inc., San Jose, CA, USA). The intensity of DNA biosynthesis in the analyzed cells was expressed in terms of dpm/well. The result of the radioactivity measurement in the control cells (without the addition of tested compounds) was taken as 100%, while the values of cells incubated with the tested compounds were presented as a percentage of the control value.
In general terms: Incorporation of labelled thymidine or its analogues reports DNA synthesis.

The subject of data set [6] is MDA-MB-231 triple-negative breast cancer cells. The data set is described as follows: DNA biosynthesis assay ([3H]-thymidine incorporation), MDA-MB-231. It counts as cell-based, human. As to conditions: Homo sapiens, MDA-MB-231, 24 h, read-out: IC50, DNA biosynthesis. The protocol: as §2
For data set [7], the system named is MCF-10A normal human breast epithelial cells. The data set is described as follows: DNA biosynthesis assay ([3H]-thymidine incorporation), MCF-10A. As to conditions: Homo sapiens, 24 h, read-out: IC50, DNA biosynthesis. The class given is cell-based. The method, then:
as §2

The subject of data set [8] is MCF-7, MDA-MB-231 and MCF-10A cells. The data set is described as follows: Viability (MTT) and DNA biosynthesis, summary statements over the tested cell lines. It counts as cell-based, human. As to conditions: DNA biosynthesis, vs EDAG-1 and EDAG-8. The protocol:
The MTT assay was used to determine the cytotoxic effects of the compounds in the study on MCF-7 and MDA-MB-231 breast cancer cells as well as MCF-10A normal human breast epithelial cells based on Carmichael’s method. All cultured cell lines were treated with varied concentrations of the tested compounds in the medium (0.5–5 µM) and incubated for 24 h in an incubator providing optimal conditions for cell culture growth (37 °C temperature, 5% CO2, and 90–95% humidity) in 6-well plates (baseline seeding density: 5 × 10^5 cells/well). After this time, the medium was removed, and the cell monolayer was washed with warm phosphate-buffered saline (PBS) without calcium and magnesium. In the next step, PBS and MTT solution in PBS (5 mg/mL) were added to each well to obtain a final MTT concentration of 0.5 mg/mL, and then the cells were incubated for 4 h (37 °C temperature, 5% CO2, 90–95% humidity). After the incubation period, the contents of each well were removed, 1 mL of DMSO was added to dissolve the formazan, and then the plate with the added DMSO was mixed for 5–10 min on a microplate shaker (Boeco, Hamburg, Germany). Then, 10 µL of Sorensen’s glycine buffer (a solution of 0.1 M glycine and 0.1 M sodium chloride adjusted to pH 10.5 with 0.1 M sodium hydroxide) was added. The absorbance of the obtained solution was immediately measured at a wavelength of λ = 570 nm using a Thermo Scientific Evolution 201 UV–VIS spectrophotometer (Thermo Fisher Scientific, Waltham, MA, USA). The absorbance result obtained in the control cells (without the addition of the tested compounds) was taken as 100%, while the viability of cells incubated with the tested compounds was presented as a percentage of the control value.
The study of the antiproliferative properties (intensity of [^3H]-thymidine incorporation into cell DNA) of the tested derivatives against tested cell lines (MCF-7, MDA-MB-231, MCF-10A) was performed after 24 h incubation with varied concentrations of the tested compounds in the medium (0.5–5 µM) in 6-well plates (baseline seeding density: 5 × 10^5 cells/well). After 24 h the medium was removed, the cells were washed with PBS (Corning, Kennebunk, ME, USA), and a fresh medium was added. […] Radioactivity was measured using the Scintillation Counter 1900 TR, TRI-CARB (Packard, Perkin Elmer, Inc., San Jose, CA, USA). The intensity of DNA biosynthesis in the analyzed cells was expressed in terms of dpm/well. The result of the radioactivity measurement in the control cells (without the addition of tested compounds) was taken as 100%, while the values of cells incubated with the tested compounds were presented as a percentage of the control value.

Regarding `CC(=O)C[Se]C(=O)c1ccc(Cl)cc1` [EDA-71], in data set [1], the “cells in which the apoptotic process was triggered” value is given as “over 50%”.

A word on the IC50: it is the concentration that gives 50% inhibition. Turning to `N#CC[Se]C(=O)c1ccc(C(=O)[Se]CC#N)cc1` [EDAG-7, Se,Se-bis(cyanomethyl) benzene-1,4-bis(carboselenoate)], the IC50 in data set [2] was 3150 ± 210 nM; in data set [3] (Homo sapiens, MDA-MB-231, 24 h incubation, read-out: IC50, cell viability (MTT)), above 5000 nM; in data set [4], 4640 ± 240 nM; in data set [5], 1810 ± 110 nM; in data set [6], 2040 ± 160 nM; in data set [7], 2330 ± 20 nM. In data set [8], the “fold weaker antiproliferative activity than the most active derivatives” value is listed as 2–3 fold.

As to `N#CC[Se]C(=O)c1cc(C(=O)[Se]CC#N)cc(C(=O)[Se]CC#N)c1` [EDAG-10, Se,Se,Se-tris-(cyanomethyl) benzene-1,3,5-tris-(carboxyselenoate)], the 50% inhibitory concentration (IC50) is 2600 ± 30 nM in data set [2]; 4180 ± 290 nM in data set [4]; 1950 ± 110 nM in data set [5]; 1560 ± 80 nM in data set [6]; 1600 ± 50 nM in data set [7]. In addition, in data set [3] (MDA-MB-231, MTT, vs EDAG-8/EDAG-1), the “fold weaker cytotoxic activity than the most active compounds” value is recorded as around 4 fold. The “fold weaker antiproliferative activity than the most active derivatives” value in data set [8] is 2–3 fold.
